According to ChEMBL document CHEMBL3046897, “Synthesis of 3-{4-[4-dimethylamino-6-(4-methyl-2-oxo-2H-chromen-7-yloxy)-[1,3,5]triazin-2-ylamino]-phenyl}-2-phenyl-5-(4-pyridin-2-yl-piperazin-1-ylmethyl)-thiazolidin-4-one and their biological evaluation” (2012):
In brackets after ≈: the same amount, converted by molar mass.

What was measured:
Assay type in all cases: functional
Aspergillus fumigatus [1] = assay: Antifungal activity against Aspergillus fumigatus after 48 hr by agar streak dilution method
Aspergillus niger [2] = assay: Antifungal activity against Aspergillus niger after 48 hr by agar streak dilution method
Escherichia coli [3] = assay: Antibacterial activity against Escherichia coli after 24 hr by agar streak dilution method
Candida albicans [4] = assay: Antifungal activity against Candida albicans after 48 hr by agar streak dilution method
Aspergillus clavatus [5] = assay: Antifungal activity against Aspergillus clavatus at 100 ug/disc after 48 hr by paper disk diffusion method; details: read-out: IZ
Shigella flexneri [6] = assay: Antibacterial activity against Shigella flexneri at 100 ug/disc after 24 hr by paper disk diffusion method; details: read-out: IZ
Pseudomonas aeruginosa [7] = assay: Antibacterial activity against Pseudomonas aeruginosa after 24 hr by agar streak dilution method
Salmonella typhi [8] = assay: Antibacterial activity against Salmonella enterica subsp. enterica serovar Typhi at 100 ug/disk after 24 hr by paper disk diffusion method; details: read-out: IZ
Aspergillus fumigatus [9] = assay: Antifungal activity against Aspergillus fumigatus at 100 ug/disc after 48 hr by paper disk diffusion method; details: read-out: IZ
Pseudomonas aeruginosa [10] = assay: Antibacterial activity against Pseudomonas aeruginosa at 100 ug/disk after 24 hr by paper disk diffusion method; details: read-out: IZ
Staphylococcus aureus [11] = assay: Antibacterial activity against Staphylococcus aureus after 24 hr by agar streak dilution method
Staphylococcus aureus [12] = assay: Antibacterial activity against Staphylococcus aureus at 100 ug/disc after 24 hr by paper disk diffusion method; details: read-out: IZ
Aspergillus niger [13] = assay: Antifungal activity against Aspergillus niger at 100 ug/disk after 48 hr by paper disk diffusion method; details: read-out: IZ
Proteus vulgaris [14] = assay: Antibacterial activity against Proteus vulgaris after 24 hr by agar streak dilution method
Candida albicans [15] = assay: Antifungal activity against Candida albicans at 100 ug/disk after 48 hr by paper disk diffusion method; details: read-out: IZ
Shigella flexneri [16] = assay: Antibacterial activity against Shigella flexneri after 24 hr by agar streak dilution method
Aspergillus clavatus [17] = assay: Antifungal activity against Aspergillus clavatus after 48 hr by agar streak dilution method
Klebsiella pneumoniae [18] = assay: Antibacterial activity against Klebsiella pneumoniae after 24 hr by agar streak dilution method
Bacillus subtilis [19] = assay: Antibacterial activity against Bacillus subtilis after 24 hr by agar streak dilution method
Salmonella typhi [20] = assay: Antibacterial activity against Salmonella enterica subsp. enterica serovar Typhi after 24 hr by agar streak dilution method
Escherichia coli [21] = assay: Antibacterial activity against Escherichia coli at 100 ug/disk after 24 hr by paper disk diffusion method; details: read-out: IZ
Klebsiella pneumoniae [22] = assay: Antibacterial activity against Klebsiella pneumoniae at 100 ug/disk after 24 hr by paper disk diffusion method; details: read-out: IZ
Proteus vulgaris [23] = assay: Antibacterial activity against Proteus vulgaris at 100 ug/disk after 24 hr by paper disk diffusion method; details: read-out: IZ
Bacillus subtilis [24] = assay: Antibacterial activity against Bacillus subtilis at 100 ug/disk after 24 hr by paper disk diffusion method; details: read-out: IZ

SMILES	MIC (Aspergillus fumigatus [1]) [µg/mL]	MIC (Aspergillus niger [2]) [µg/mL]	MIC (Escherichia coli [3]) [µg/mL]	MIC (Candida albicans [4]) [µg/mL]	zone of inhibition at 100 µg/disc (Aspergillus clavatus [5]) [mm]	zone of inhibition at 100 µg/disc (Shigella flexneri [6]) [mm]	MIC (Pseudomonas aeruginosa [7]) [µg/mL]	zone of inhibition at 100 µg/disc (Salmonella typhi [8]) [mm]	zone of inhibition at 100 µg/disc (Aspergillus fumigatus [9]) [mm]	zone of inhibition at 100 µg/disc (Pseudomonas aeruginosa [10]) [mm]	MIC (Staphylococcus aureus [11]) [µg/mL]	zone of inhibition at 100 µg/disc (Staphylococcus aureus [12]) [mm]	zone of inhibition at 100 µg/disc (Aspergillus niger [13]) [mm]	MIC (Proteus vulgaris [14]) [µg/mL]	zone of inhibition at 100 µg/disc (Candida albicans [15]) [mm]	MIC (Shigella flexneri [16]) [µg/mL]	MIC (Aspergillus clavatus [17]) [µg/mL]	MIC (Klebsiella pneumoniae [18]) [µg/mL]	MIC (Bacillus subtilis [19]) [µg/mL]	MIC (Salmonella typhi [20]) [µg/mL]	also measured
Cc1cc(=O)oc2cc(Oc3nc(Nc4ccc(/N=C/c5cccc(F)c5)cc4)nc(N(C)C)n3)ccc12	100 (≈ 196 µM)	50 (≈ 97.9 µM)	50 (≈ 97.9 µM)	100 (≈ 196 µM)	17	19	100 (≈ 196 µM)	18	14	17	100 (≈ 196 µM)	13	18	100 (≈ 196 µM)	13	50 (≈ 97.9 µM)	50 (≈ 97.9 µM)	50 (≈ 97.9 µM)	50 (≈ 97.9 µM)	25 (≈ 49 µM)	zone of inhibition at 100 µg/disc (Escherichia coli [21]): 20 mm; zone of inhibition at 100 µg/disc (Klebsiella pneumoniae [22]): 16 mm; zone of inhibition at 100 µg/disc (Proteus vulgaris [23]): 14 mm; zone of inhibition at 100 µg/disc (Bacillus subtilis [24]): 16 mm
Cc1cc(=O)oc2cc(Oc3nc(Nc4ccc(N5C(=O)C(CN6CCN(c7ccccn7)CC6)SC5c5ccc(O)cc5)cc4)nc(N(C)C)n3)ccc12 (stereo not given)	6.25 (≈ 8.25 µM)	6.25 (≈ 8.25 µM)	6.25 (≈ 8.25 µM)	12.5 (≈ 16.5 µM)	21	22	12.5 (≈ 16.5 µM)	27	25	23	6.25 (≈ 8.25 µM)	27	27	12.5 (≈ 16.5 µM)	23	25 (≈ 33 µM)	25 (≈ 33 µM)	25 (≈ 33 µM)	6.25 (≈ 8.25 µM)	6.25 (≈ 8.25 µM)	zone of inhibition at 100 µg/disc (Escherichia coli [21]): 30 mm; zone of inhibition at 100 µg/disc (Klebsiella pneumoniae [22]): 19 mm; zone of inhibition at 100 µg/disc (Proteus vulgaris [23]): 25 mm; zone of inhibition at 100 µg/disc (Bacillus subtilis [24]): 25 mm
Cc1cc(=O)oc2cc(Oc3nc(Nc4ccc(N5C(=O)C(CN6CCN(c7ccccn7)CC6)SC5c5ccc([N+](=O)[O-])cc5)cc4)nc(N(C)C)n3)ccc12 (stereo not given)	50 (≈ 63.5 µM)	100 (≈ 127 µM)	100 (≈ 127 µM)	100 (≈ 127 µM)	20	14	100 (≈ 127 µM)	18	18	13	100 (≈ 127 µM)	16	15	100 (≈ 127 µM)	13	100 (≈ 127 µM)	50 (≈ 63.5 µM)	100 (≈ 127 µM)	100 (≈ 127 µM)	50 (≈ 63.5 µM)	zone of inhibition at 100 µg/disc (Escherichia coli [21]): 16 mm; zone of inhibition at 100 µg/disc (Klebsiella pneumoniae [22]): 15 mm; zone of inhibition at 100 µg/disc (Proteus vulgaris [23]): 10 mm; zone of inhibition at 100 µg/disc (Bacillus subtilis [24]): 13 mm
Cc1cc(=O)oc2cc(Oc3nc(Nc4ccc(N5C(=O)C(CN6CCN(c7ccccn7)CC6)SC5c5ccc(Cl)cc5Cl)cc4)nc(N(C)C)n3)ccc12 (stereo not given)	50 (≈ 61.7 µM)	50 (≈ 61.7 µM)	25 (≈ 30.8 µM)	50 (≈ 61.7 µM)	23	20	50 (≈ 61.7 µM)	18	19	18	25 (≈ 30.8 µM)	22	18	12.5 (≈ 15.4 µM)	20	25 (≈ 30.8 µM)	25 (≈ 30.8 µM)	25 (≈ 30.8 µM)	12.5 (≈ 15.4 µM)	50 (≈ 61.7 µM)	zone of inhibition at 100 µg/disc (Escherichia coli [21]): 19 mm; zone of inhibition at 100 µg/disc (Klebsiella pneumoniae [22]): 21 mm; zone of inhibition at 100 µg/disc (Proteus vulgaris [23]): 21 mm; zone of inhibition at 100 µg/disc (Bacillus subtilis [24]): 23 mm
Cc1cc(=O)oc2cc(Oc3nc(Nc4ccc(/N=C/c5ccc(O)cc5O)cc4)nc(N(C)C)n3)ccc12	25 (≈ 47.7 µM)	100 (≈ 191 µM)	25 (≈ 47.7 µM)	25 (≈ 47.7 µM)	15	18	50 (≈ 95.3 µM)	18	18	17	12.5 (≈ 23.8 µM)	20	14	50 (≈ 95.3 µM)	20	100 (≈ 191 µM)	100 (≈ 191 µM)	50 (≈ 95.3 µM)	25 (≈ 47.7 µM)	50 (≈ 95.3 µM)	zone of inhibition at 100 µg/disc (Escherichia coli [21]): 18 mm; zone of inhibition at 100 µg/disc (Klebsiella pneumoniae [22]): 19 mm; zone of inhibition at 100 µg/disc (Proteus vulgaris [23]): 17 mm; zone of inhibition at 100 µg/disc (Bacillus subtilis [24]): 18 mm
